In US20170157192A1, “USE OF THE CHINESE MEDICINE COMPOSITION AND DIANXIANNING IN THE PREPARATION OF A MEDICAMENT FOR PREVENTING OR TREATING ALZHEIMER'S DISEASES” (Lanzhou University, priority 2014, published 2017):
Structures can show the parent of a compound that is named as a salt.

Key:
C. elegans CL4176 = test: Toxicity on growth and development (body length) of C. elegans; assay type: in vivo, Caenorhabditis elegans; conditions: Example 2, FIG. 1
Experimental: C. elegans are sensitive to environmental changes, and drug toxicity can be accurately evaluated by using C. elegans. The body length is one of the most commonly used indictors of developmental toxicity.
After the end of paralysis experiment, worms were immediately placed at 50° C. for 15 min to straighten the body of every worm. The worms were observed and photographed under a microscope, and measured the length of every worm using MvImage system.

[1] = system: transgenic C. elegans strain CL4176 expressing human Aβ; conditions: 2.16 mg/mL; it has been reported; cited from earlier work
[2] = system: transgenic C. elegans strain CL4176 expressing human Aβ; test: Aβ-induced paralysis in transgenic C. elegans strain CL4176; assay type: in vivo, Caenorhabditis elegans; conditions: Example 2, FIG. 1, dose-dependent
Description: The present invention employed the transgenic C. elegans strain CL4176 as a pathological model to evaluate the effect of the Chinese medicine and DXN on preventing or treating AD. The principle of Aβ theory of AD is based on that Aβ aggregates in the cerebral cortex and hippocampus and subsequently forms senile plaques (SP), which is one of the most major pathological features of AD. Toxic Aβ can effectively weaken the structure and function of synapses, and cause memory impairment on the AD patients. Transgenic C. elegans strain CL4176 which expresses the human Aβ species in the muscle tissue that can induce Aβ-dependent paralysis at 25° C. was used in the present invention. Aβ aggregates in the muscle tissue, eventually resulting in the paralysis of CL4176. The medicament acts on C. elegans strain CL4176.
(1) C. elegans CL4176 is purchased from Caenorhabditis Genetics Center; which is a transgenic strain and muscle-specific expression of human Aβ can be induced at 25° C., and Aβ is aggregated in muscle tissue, resulting in the paralysis of C. elegans. CL4176 worm was used in the invention as a pathological model to screen and evaluate the anti-AD actions of the Chinese medicine compositions and DXN.
The synchronized C. elegans eggs were placed onto solid NGM coated with OP50 and containing different concentration of Memantine Hydrochloride. The blank control is a NMG medium coated with OP50 and added with the same volume of ddH2O to replace the Memantine Hydrochloride. The worms were cultured at 16° C. for 3 days to L3 larvae (about 60 worms per plate). The results are presented as the average of three biological replicates.
In order to induce the Aβ expression, the culture temperature of transgenic L3 larvae C. elegans CL4176 was shifted from 16° C. to 25° C. for 34 h. Then paralysis individuals were counted under a dissecting stereo microscope at 2 h intervals until all worms became paralyzed.
The synchronized C. elegans eggs were placed onto solid NGM coated with OP50 and containing working concentration of the Chinese medicine compositions. […]

Compound: CC12CC3CC(C)(C1)CC(N)(C3)C2 [Menantine Hydrochloride, 1-amino-3,5-dimethyl amantadine hydrochloride]
- inhibition of development of C. elegans (C. elegans CL4176; 107.88 m/mL in NGM): strongly inhibit the development
- inhibition of development of C. elegans (C. elegans CL4176; 215.76 m/mL in NGM): strongly inhibit the development
- delay of Aβ-induced paralysis in transgenic CL4176 (reported) [1]: significantly delay Aβ-induced paralysis
- delay of Aβ-induced paralysis of CL4176 ([2]; 4.32 μg/mL in NGM): significantly delayed the paralysis
- delay of Aβ-induced paralysis of CL4176 ([2]; 0.86m/mL in NGM): significantly delayed the paralysis
- delay of Aβ-induced paralysis of CL4176 ([2]; 21.58m/mL in NGM): significantly delayed the paralysis
